# Data reported in patent publication US6376510B1, “Neuromuscular relaxants” (Newlaxant LLC, priority 1997, dated 2002).
# Where two headings read alike, the source gives them in different places.
# Key:
# [1] = system: anesthetized cats (evoked responses of anterior tibial muscle); assay: animal or person; conditions: for RI (recovery index): spontaneous recovery, 25-75% neuromuscular response; for Onset: time to 80-85% neuromuscular block
# Excerpt: (§1) a) Adult, male albino rats were anesthetized with pentobarbital injected intraperitoneally. The trachea was cannulated for artificial respiration via a small animal respirator. The carotid artery was cannulated for recording blood pressure via a transducer and heart rate by a cardiotachograph on a polygraph. One external jugular vein was cannulated for i.v. drug administration. Neuromuscular function was monitored by electromyography, recording evoked responses from the anterior tibial muscle as a result of supramaximal nerve stimuli consisting of single or “train-of-four” rectangular pulses of 0.1-0.2 msec duration every 10-12 seconds, delivered to the sciatic or common peroneal nerve by a laboratory nerve stimulator. Another mode of stimulation included repeated single stimuli delivered at 0.1 Hz or 1 Hz. […] The agents were dissolved in physiologic saline and injected intravenously at appropriate time intervals. The intensity, onset, and duration of neuromuscular block and its type were determined with each agent. Through administering several doses, the doses corresponding to 50%, 80% and 90% neuromuscular block were determined. All agents were compared with selected standard neuromuscular blocking compounds, e.g. succinylcholine, pancuronium, mivacurium, or rocuronium.
# (§2) Onset=time in minutes to 80-85% neuromuscular block.
# (§3) RI=recovery index, minutes, spontaneous recovery, 25-75% neuromuscular response.
# (§4) VB=vagal block, %, at 80-85% neuromuscular blocking dose.
# (§5) ΔHR=change in heart rate, %, at 80-85% neuromuscular blocking dose.
# (§6) ΔBP=change in arterial blood pressure, %, at 80-85% neuromuscular blocking dose.
# b) Adult cats were anesthetized with a mixture of 70 mg/kg alpha chloralose and 0.5 g/kg ethylurethane intraperitoneally. One thigh was fixed in a vertical position by means of a pin at the lower end of the femur. Needle electrodes were placed on the sciatic or the common peroneal nerve. A tendon of the anterior tibial muscle was attached to a force transducer and the muscle responses evoked, as described under a), were recorded. Both electromyographic and mechanomyographic responses can be quantified. Blood pressure and heart rate changes were recorded from appropriately cannulated arteries via a blood pressure transducer and cardiotachograph.
# [2] = system: anesthetized monkeys; assay: In vivo neuromuscular block and cardiovascular side effects, monkey (Example 8, Table 6); conditions: for ED50: intravenous dose causing 50% neuromuscular block; for RI (recovery index): spontaneous recovery, 25-75% neuromuscular response; for Onset: time to 80-85% neuromuscular block
# Excerpt: (§7) Both electromyographic and mechanomyographic responses can be quantified.
# (§8) The techniques described under a) and b) were employed in other species as needed with the modification that juvenile pigs were initially anesthetized with inhalation of halothane (Table 5) and monkeys were initially sedated with intramuscular ketamine injections prior to inducing and maintaining general anesthesia using pentobarbital and propofol administered intravenously (Table 6).
# [3] = system: anesthetized rats (evoked responses of anterior tibial muscle); assay: In vivo neuromuscular block and cardiovascular side effects, anesthetized rat (Example 8, Table 3); conditions: for Onset: time to 80-85% neuromuscular block
# Excerpt: The neuromuscular blocking activity and other effects (e.g. cardiovascular side effects) of selected agents were investigated on several different experimental animals. Justification for this approach lies in the commonly known fact that the pharmacodynamic and pharmacokinetic properties of these agents are markedly variable from species to species. Therefore, the most important aspects of the projected therapeutic utility of these agents, e.g., neuromuscular blocking potency, onset and duration of action, and side effects cannot be ascertained in “in vitro” preparations or by using only one species of animals.
# as §1, §2, §3, §4, §5, §6
# [4] = system: rabbits; assay: In vivo neuromuscular block and cardiovascular side effects, rabbit (Example 8, Table 7); conditions: for ED50: intravenous dose causing 50% neuromuscular block; for RI (recovery index): spontaneous recovery, 25-75% neuromuscular response; for Onset: time to 80-85% neuromuscular block
# [5] = system: anesthetized juvenile pigs; assay: animal or person; type: in vivo; conditions: pig; for ED50: intravenous dose causing 50% neuromuscular block; for RI (recovery index): spontaneous recovery, 25-75% neuromuscular response; for Onset: time to 80-85% neuromuscular block
# Excerpt: as §7, §8
# [6] = cat, at 80-85% neuromuscular blocking dose
# [7] = cat, intravenous dose causing 50% neuromuscular block
# [8] = rat, intravenous dose causing 50% neuromuscular block
# [9] = rat, spontaneous recovery, 25-75% neuromuscular response
# [10] = Oryctolagus cuniculus, read-out: ED50
# [11] = at 80-85% neuromuscular blocking dose
# [12] = rat, at 80-85% neuromuscular blocking dose
SMILES,"ED50 ([1]; Felis catus, iv) [mg/kg]",RI (recovery index) ([1]; cat) [min],Onset ([1]; cat) [min],ΔBP (change in arterial blood pressure) ([2]; in vivo) [%],ΔH (change in heart rate) ([2]; in vivo) [%],RI (recovery index) [2] [min],Onset [2] [min],"ED50 [3, 8] [mg/kg]","RI (recovery index) [3, 9] [min]",Onset ([3]; rat) [min],ΔBP (change in arterial blood pressure) ([4]; in vivo) [%],ΔH (change in heart rate) ([4]; in vivo) [%],RI (recovery index) [4] [min],Onset [4] [min],VB (vagal block) ([5]; in vivo) [%],ΔBP (change in arterial blood pressure) ([5]; in vivo) [%],ΔH (change in heart rate) ([5]; in vivo) [%],RI (recovery index) [5] [min],Onset [5] [min],"ED50 [4, 10] [mg/kg]",other results
"C[N+]1(C)[C@@H]2CC[C@H]1C[C@@H](OC(=O)CCCCCCCCC(=O)O[C@H]1C[C@H]3CC[C@@H](C1)[N+]3(C)C)C2.[I-].[I-] [bis[N-methyltropanium-3α-yl]sebacate diiodide, reference compound]",0.125,3.9,2.3,–,–,–,–,–,–,–,–,–,–,–,–,–,–,–,–,–,"VB (vagal block) [1, 6]: 100%; ΔBP (change in arterial blood pressure) [1, 6]: 0%; ΔH (change in heart rate) [1, 6]: 0%"
"CC(=O)Oc1ccc(C[N+]2(C)C3CCCC2CC(OC(=O)CCCCC(=O)OC2CC4CCCC(C2)[N+]4(C)Cc2ccc(OC(C)=O)c(OC(C)=O)c2)C3)cc1OC(C)=O.[Br-].[Br-] (stereo not drawn) [bis[N-(3,4-diacetoxybenzyl)granataninium-3-yl]adipate dibromide]",–,0.5,0.7,0,0,0.4,0.8,0.14,0.4,0.5,0,0,0.5,0.68,51,0,0,0.9,0.7,–,"ED50 [2]: 0.085 mg/kg; ED50 [1, 7]: 0.4 mg/kg; VB (vagal block) ([1]; in vivo): 70%; ΔBP (change in arterial blood pressure) ([1]; in vivo): −40%; ΔH (change in heart rate) ([1]; in vivo): 0%; VB (vagal block) ([3]; rat, in vivo): 5%; ΔBP (change in arterial blood pressure) ([3]; rat, in vivo): 0%; ΔH (change in heart rate) ([3]; rat, in vivo): 0%; ED50 [4]: 0.167 mg/kg; ED50 [5]: 0.14 mg/kg"
"COc1cc2c(cc1OC)[C@@H](Cc1cc(OC)c(OC)c(OC)c1)[N+](C)(CCCOC(=O)CC/C=C/CCC(=O)OCCC[N+]1(C)CCc3cc(OC)c(OC)cc3[C@H]1Cc1cc(OC)c(OC)c(OC)c1)CC2 (stereo partly drawn) [Mivacurium, reference compound]",–,5,3.5,0,0,2.4,1.9,0.14,3.9,1.8,0,0,3.9,2.8,17,0,0,3.6,1.5,0.02,"ED50 ([2]; Primates, read-out: ED50): 0.034 mg/kg; ΔBP (change in arterial blood pressure) ([1]; cat, in vivo): 0%; ΔH (change in heart rate) ([1]; cat, in vivo): 0%; ED50 [1, 7]: 0.025 mg/kg; VB (vagal block) ([3]; male, rat, in vivo): 0%; ΔBP (change in arterial blood pressure) ([3]; male, rat, in vivo): 0%; ΔH (change in heart rate) ([3]; male, rat, in vivo): 0%; ED50 ([5]; Sus scrofa, read-out: ED50): 0.135 mg/kg"
"COc1ccc(CC2c3cc(OC)c(OC)cc3CC[N+]2(C)CCC(=O)OCCCCCOC(=O)CC[N+]2(C)CCc3cc(OC)c(OC)cc3C2Cc2ccc(OC)c(OC)c2)cc1OC (stereo not drawn) [Atracurium, reference compound]",0.068,4.8,2.7,–,–,7.5,3,–,–,1.5,–,–,5.7,2.7,–,–,–,–,–,0.03,"ED50 ([2]; Primates, read-out: ED50): 0.186 mg/kg; ΔBP (change in arterial blood pressure) [2, 11]: 0%; ΔH (change in heart rate) [2, 11]: 0%; ΔBP (change in arterial blood pressure) ([1]; cat, in vivo): 0%; ΔH (change in heart rate) ([1]; cat, in vivo): 0%; ED50 ([3]; Rattus norvegicus, iv): 0.32 mg/kg; VB (vagal block) ([3]; male, rat, in vivo): 0%; ΔBP (change in arterial blood pressure) ([3]; male, rat, in vivo): 0%; ΔH (change in heart rate) ([3]; male, rat, in vivo): 0%; RI (recovery index) ([3]; rat, in vivo): 2.9 min; ΔBP (change in arterial blood pressure) [4, 11]: 0%; ΔH (change in heart rate) [4, 11]: 0%"
"CCC(=O)Oc1c(OC)cc(C[N+]2(C)[C@@H]3CC[C@H]2C[C@@H](OC(=O)C2CCCC(C(=O)O[C@H]4C[C@H]5CC[C@@H](C4)[N+]5(C)Cc4cc(OC)c(OC(=O)CC)c(OC)c4)C2)C3)cc1OC.[Br-].[Br-] (stereo partly drawn) [bis[N-(3,5-dimethoxy-4-propionyloxybenzyl)tropanium-3α-yl]cyclohexane-1,3-dicarboxylate dibromide]",–,–,–,–,–,–,–,–,0.45,0.55,–,–,0.4,0.45,–,–,–,1.3,0.7,0.4,"ED50 ([3]; Rattus norvegicus, iv): 0.27 mg/kg; VB (vagal block) [3, 12]: 0%; ΔBP (change in arterial blood pressure) [3, 12]: 0%; ΔH (change in heart rate) [3, 12]: 0%; ΔBP (change in arterial blood pressure) [4, 11]: 0%; ΔH (change in heart rate) [4, 11]: 0%; ED50 ([5]; Sus scrofa, read-out: ED50): 0.25 mg/kg; VB (vagal block) [5, 11]: 30%; ΔBP (change in arterial blood pressure) [5, 11]: 0%; ΔH (change in heart rate) [5, 11]: 0%"
"C[N+]1(CC2CC2)[C@@H]2CC[C@H]1C[C@@H](OC(=O)CCCCCCC(=O)O[C@H]1C[C@H]3CC[C@@H](C1)[N+]3(C)CC1CC1)C2.[Br-].[Br-] (stereo partly drawn) [bis[N-(cyclopropylmethyl)tropanium-3α-yl]suberate dibromide, reference compound]",0.155,9,1.4,–,–,–,–,–,–,–,–,–,–,–,–,–,–,–,–,–,"VB (vagal block) [1, 6]: 80%; ΔBP (change in arterial blood pressure) [1, 6]: 0%; ΔH (change in heart rate) [1, 6]: 0%"
"CC(=O)Oc1ccc(C[N+]2(C)C3CCCC2CC(OC(=O)CCCCCC(=O)OC2CC4CCCC(C2)[N+]4(C)Cc2ccc(OC(C)=O)c(OC(C)=O)c2)C3)cc1OC(C)=O.[Br-].[Br-] (stereo not drawn) [bis[N-(3,4-diacetoxybenzyl)granataninium-3-yl]pimelate dibromide]",–,–,–,0,0,0.55,1.2,0.175,0.4,0.45,0,0,0.6,0.72,48,0,0,1,0.7,–,"ED50 [2]: 0.15 mg/kg; VB (vagal block) ([3]; rat, in vivo): 0%; ΔBP (change in arterial blood pressure) ([3]; rat, in vivo): 0%; ΔH (change in heart rate) ([3]; rat, in vivo): 0%; ED50 [4]: 0.266 mg/kg; ED50 [5]: 0.193 mg/kg"
"COc1cc(C[N+]2(C)[C@@H]3CC[C@H]2C[C@@H](OC(=O)CCCCCCCCCC(=O)O[C@H]2C[C@H]4CC[C@@H](C2)[N+]4(C)Cc2cc(OC)c(OC)c(OC)c2)C3)cc(OC)c1OC.[Br-].[Br-] (stereo partly drawn) [bis[N-(3,4,5-trimethoxybenzyl)tropanium-3α-yl]1,9-nonanedicarboxylate dibromide]",–,–,–,–,–,–,–,–,1.8,0.8,–,–,2.5,1.3,–,–,–,2.4,1.5,0.07,"ED50 ([3]; Rattus norvegicus, iv): 0.18 mg/kg; VB (vagal block) [3, 12]: 10%; ΔBP (change in arterial blood pressure) [3, 12]: 0%; ΔH (change in heart rate) [3, 12]: 0%; ΔBP (change in arterial blood pressure) [4, 11]: 0%; ΔH (change in heart rate) [4, 11]: 0%; ED50 ([5]; Sus scrofa, read-out: ED50): 0.31 mg/kg; VB (vagal block) [5, 11]: 40%; ΔBP (change in arterial blood pressure) [5, 11]: 0%; ΔH (change in heart rate) [5, 11]: 0%"
